Tests used:
SIRT6 [1] = molecular target: T1, SIRT6 (Homo sapiens, UniProt Q8N6T7); assay: Steady-state kinetic analysis of SIRT6 deacetylation (Michaelis-Menten); format: biochemical; settings: in the presence of 100 μM CL4, 50 μM TTNPB, 50 μM LPA or 50 μM LGly
Procedure: FIGS. 1A-F illustrate the identification of novel SIRT6 activators. (1A) Compound libraries BML-2803, BML-2800, and an additional set of 178 molecules were screened at 100 μM for their ability to stimulate SIRT6 (1 μM) deacetylation of H3K9ac peptide (20 μM) in the presence of 0.5 mM NAD^+. SIRT6 activity was measured by HPLC quantification of H3K9ac and deacetylated product (inset) and fold activations relative to DMSO control were determined and compiled. (1B) Fold-activation of SIRT6 (1 μM) determined in the presence of either 0-400 μM CL4, 0-150 μM TTNPB, 0-100 μM Lysophosphatidic acid (LPA), or 0-200 μM linoleoylglycine (LGly). Maximum fold-activation and EC50 determined by sigmoidal curve fit. […] Constants Km, H3K9ac and kcat were determined by fitting data to Michaelis-Menten equation. (1D) Fold-activations of SIRT1 (0.1 μM), SIRT2 (0.2 μM), SIRT3 (1 μM), SIRT5 (2 μM), and SIRT6 (1 μM) determined in the presence of CL4 (100 μM), TTNPB (50 μM), and LPA (50 μM) relative to DMSO control against 20 μM H3K9ac peptide and 0.5 mM NAD^+. […]
FIGS. 2A-D show results characterizing SIRT6 activator CL5D. […] (2B) SIRT6 demyristoylase activity determined in the presence of 0-25 μM H3K9myr peptide, 0.5 mM NAD^+ and 5% DMSO (•), 12.5 μM CL5D (▪), 25 μM CL5D (♦), and 50 μM CL5D (▴). […]

SIRT6 [2] = molecular target: T1, SIRT6; assay: Small molecule SIRT6 activator screen (H3K9ac peptide deacetylation, HPLC); format: biochemical; settings: compound 100 μM; SIRT6 1 μM; H3K9ac peptide 20 μM; 0.5 mM NAD+
Procedure: Mastermix containing SIRT6, buffer, and H3K9ac peptide were distributed to wells using Microflex peristaltic dispenser (Beckman). Plates were spun and preheated to 37° C. before addition of NAD^+ using peristaltic dispenser. After 60 minutes reactions were quenched with 2% TFA final using peristaltic dispenser then sealed and spun again before in-house HPLC separation and quantification of substrate and product peptides. Reaction conditions were 1 μM SIRT6, 0.5 mM NAD^+, […] (4-16), 20 mM potassium phosphate pH 7.5, 10% DMSO, and either 10 or 100 μM compound determined by 10-fold dilution of stock library concentration.
All sirtuin deacylation assays were carried out at 37° C. in 20 mM potassium phosphate pH 7.5 with 0.5 mM NAD^+, 10% DMSO, and 20 μM H3K9ac or H3K9myr peptides, unless otherwise noted in legend, and quenched by the addition of 2% TFA final. Steady-state reactions were constrained to less than 20% substrate turnover to prevent product inhibition. A variety of times were required to monitor SIRT6 deacetylation (2-60 minutes) under this restraint given the ability to strongly activate catalysis. In these cases, specific activities were determined and either reported as is or as fold-activation of specific activity. […] Deacetylation reactions were analyzed using a gradient of 33-100% B (30% acetonitrile with 0.05% TFA) in 8 min at 1.6 mL min^−1. Demyristoylation reactions were analyzed using a gradient of 3 to 100% B (acetonitrile with 0.05% TFA) in 10 min at 1.6 mL min^−1. The product and substrate peaks were quantified and ratio of these allowed for quantification of product formation.

T1 sequence (Q8N6T7 whole entry): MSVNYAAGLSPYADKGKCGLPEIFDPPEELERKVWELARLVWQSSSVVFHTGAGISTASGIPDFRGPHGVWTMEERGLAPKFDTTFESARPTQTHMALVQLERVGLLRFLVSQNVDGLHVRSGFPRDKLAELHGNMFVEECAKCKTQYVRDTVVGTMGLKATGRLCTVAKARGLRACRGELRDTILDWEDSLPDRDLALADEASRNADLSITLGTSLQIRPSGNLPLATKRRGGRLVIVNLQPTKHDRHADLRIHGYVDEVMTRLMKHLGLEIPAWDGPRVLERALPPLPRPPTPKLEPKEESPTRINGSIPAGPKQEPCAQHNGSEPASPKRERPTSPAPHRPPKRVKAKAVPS

kcat (SIRT6 [1]) [s^−1 × 10^−3]	F.A. (fold-activation of SIRT6 relative to DMSO control) (SIRT6 [2]) [fold]	SMILES
1.5 ± 0.3	18	O=C(O)c1ccc2c(c1)C(=O)N(c1ccc(NC(=O)c3ccc(Cl)cc3Cl)c(Cl)c1)C2=O [CL-4, 2-(3-chloro-4-(2,4-dichlorobenzamido)phenyl)-1,3-dioxoisoindoline-5-carboxylic acid]
2.8 ± 0.1	29	CCCCC/C=C\C/C=C\CCCCCCCC(=O)NCC(=O)O [N-Linoleoylglycine, linoleoyl-glycine, reference compound]

From patent US12390447B2, “Sirtuin 6 protein deacylase (SIRT6) activators” (Wisconsin Alumni Research Foundation, priority 2019, dated 2025)
